The source of these data is patent US4038402A, “Method of effecting antihistaminic, antiserotonin and antiallergic actions” (priority 1974, dated 1977).

Data set [1] in a line: pharmacological activity in experiments on isolated organs and on intact animals (overall). As for the experimental part: (§1) The pharmacological activity of said compounds has been tested in various experiments in isolated organs and on intact narcotized and non-narcotizedanimals. The tests were aimed at establishing and quantitatively determining antihistaminic, antiserotonin, cholinolytic, and also broncholytic activity of the preparations. Moreover, the action of the preparations on increased permeability of the vessels, their antiexudative, antiallergic action were tested on guinea pigs, actively sensitized with ovalbumin with the administration of the antigen in the form of aerosol in effective doses. The effect of the preparations on the central nervous system, namely on the spontaneous motor activity, and also the interaction of the preparations with hypnotic and stimulating preparations, was tested.

For the next data set, the system named is histamine. The data set is described as follows: antihistaminic and antiallergic activity compared with known preparations. The following applies: for certain experimental antihistaminic and antiallergic activity relative to known preparations: compared with dimedrol and diprasin-pipolfen.
The subject of the next data set is ovalbumin. Kind of data set: anaphylactic reaction of guinea pigs sensitized with ovalbumin, aerosol of ovalbumin. The following applies: 30 mg/kg in the stomach. The format is in vivo. As for the experimental part: as §1
The nature of data set [2]: toxicity (LD50) on various laboratory animals. The format is in vivo. On the procedure:
The toxicity (LD50) of the preparations was determined with various methods of administration (intravenous, subcutaneous, in the stomach) on various laboratory animals.

The next data set has as its system serotonin and histamine. The data set is described as follows: time course of action on bronchoconstriction by serotonin and histamine (Koncett-Rossler method). Format: in vivo, guinea pigs. The following applies: after intravenous injection. The text has this:
The broncheal muscle tone was examined in intact narcotized guinea pigs by the Koncett-Rossler method.

Data set [3] relates to serotonin. To be noted: 30 mg/kg in the stomach; serotonin aerosol.
The subject of data set [4] is serotonin. To be noted: known antagonist; cited from earlier work.

Take `OC(c1ccccc1)(C1CCCCC1)C1CN2CCC1CC2` (centres unmarked) [(phenyl)-(cyclohexyl)-(quinuclidyl- 3) -carbinol]: the pharmacological activity entry in data set [1] is on record as “high activity”.

Consider `OC(c1ccccc1)(c1cccs1)C1CN2CCC1CC2` (centres unmarked) [(phenyl)-(thienyl- 2')-(quinuclidyl- 3)carbinol], for which the pharmacological activity result in data set [1] was “high activity”.

`OC(c1cccs1)(c1cccs1)C1CN2CCC1CC2` (centres unmarked) [(quinuclidyl-3 )-di(thienyl- 2')-carbinol]: the pharmacological activity entry in data set [1] was “high activity”.

As to `COc1ccccc1C(O)(c1ccccc1OC)C1CN2CCC1CC2` (centres unmarked) [(quinuclidyl-3)-di(2'-methoxyphenyl)carbinol], the “certain experimental antihistaminic and antiallergic activity relative to known preparations” value in the data set on histamine is reported as “superior”. For the same compound, in the data set on ovalbumin, the “protection from anaphylactic reaction” value was “actively protects”.

As for `OC(c1ccccc1)(c1ccccc1)C1CN2CCC1CC2` (centres unmarked) [(quinuclidyl-3)-diphenylcarbinol], the “times less toxic than dimedrol” value in data set [2] (given in the stomach) and in data set [2] (given intravenously) was 1.5 times throughout. Besides, the antihistaminic activity entry in the data set with histamine is recorded as “high antihistaminic activity”. The “certain experimental antihistaminic and antiallergic activity relative to known preparations” value with histamine was “superior”. Also, the pharmacological activity result in data set [1] is “high activity”.

As for `CN(C)CCOC(c1ccccc1)c1ccccc1` [Dimedrol], the onset of effect result in the data set with serotonin and histamine was “immediately”. Besides, the “persistence of the antiserotonin action” value in the data set with serotonin [3] was 4 to 6 h.

As for `CCN(CC)C(=O)[C@@H]1C=C2c3cccc4[nH]cc(c34)C[C@H]2N(C)C1` [LSD-25, diethylamide lysergic acid], in the data set with serotonin and histamine, the onset of effect entry is “immediately”. In the data set on serotonin [4], the “activity as antagonist to serotonin” value was “one of the most active known antogonists to serotonin”.
